Earlier results, collected in patent US12447190B1, “Vasopressin premix systems and uses thereof” (Baxter International Inc., priority 2023, dated 2025).

Assays:
[1] = system: patients with vasodilatory shock

NC(=O)CC[C@@H]1NC(=O)[C@H](Cc2ccccc2)NC(=O)[C@H](Cc2ccc(O)cc2)NC(=O)[C@@H](N)CSSC[C@@H](C(=O)N2CCC[C@H]2C(=O)N[C@@H](CCCN=C(N)N)C(=O)NCC(N)=O)NC(=O)[C@H](CC(N)=O)NC1=O [vasopressin, Cyclo (1-6) L-Cysteinyl-L-Tyrosyl-L-Phenylalanyl-L-Glutaminyl-L-Asparaginyl-L-Cysteinyl-L-Prolyl-L-Arginyl-L-Glycinamide]
time for pressor effect to fade ([1]; after stopping the infusion): ≤ 20 min | time for pressor effect to reach its peak ([1]; infusion in patients): ≤ 15 min | time to steady state plasma concentrations (continuous intravenous infusion): 30 min | vasopressin plasma concentrations versus infusion rate (infusion rates from 10 to 200 U/kg/min): increases linearly
